Experimental data taken from paper PMC6556873, “Rapid Covalent-Probe Discovery by Electrophile-Fragment Screening” (Journal of the American Chemical Society, 2019).
Read-outs that look alike come from different tables or passages of the source.

Columns and labels:
BSA = target: T1, BSA (Bos taurus, UniProt P02769); parameters: Intact protein LC/MS covalent labelling, fragments in pools of five, 200 uM each, 4 °C; details: 24 h, 4 °C, pool of five; 200 µM; covalent
T1 construct: gene ALB

NNMT (hNNMT) = target: T2, NNMT (hNNMT) (Homo sapiens, UniProt P40261); parameters: Intact protein LC/MS covalent labelling, fragments in pools of five, 200 uM each, 4 °C; details: 24 h, 4 °C, pool of five; 200 µM; covalent
T2 construct: wild type, N-terminal His6 tag kept (no cleavage described), E. coli, construct 31248 Da
T2 sequence (P40261 1-264): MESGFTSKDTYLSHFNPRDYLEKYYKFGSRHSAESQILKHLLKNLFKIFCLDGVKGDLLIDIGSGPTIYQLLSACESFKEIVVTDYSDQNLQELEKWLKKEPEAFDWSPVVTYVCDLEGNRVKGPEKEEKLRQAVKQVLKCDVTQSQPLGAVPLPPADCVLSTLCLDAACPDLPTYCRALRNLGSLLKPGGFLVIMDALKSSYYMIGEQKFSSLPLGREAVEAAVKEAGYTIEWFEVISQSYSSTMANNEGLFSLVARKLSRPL

NUDT7 = target: T3, NUDT7 (Homo sapiens, UniProt P0C024); parameters: Intact protein LC/MS covalent labelling, fragments in pools of five, 200 uM each, 4 °C; details: 24 h, 4 °C, pool of five; 200 µM; covalent
T3 construct: residues 14-235, E. coli, pNIC28-Bsa4, N-terminal His6 tag removed by TEV, construct 26672 Da
T3 sequence (P0C024 14-235): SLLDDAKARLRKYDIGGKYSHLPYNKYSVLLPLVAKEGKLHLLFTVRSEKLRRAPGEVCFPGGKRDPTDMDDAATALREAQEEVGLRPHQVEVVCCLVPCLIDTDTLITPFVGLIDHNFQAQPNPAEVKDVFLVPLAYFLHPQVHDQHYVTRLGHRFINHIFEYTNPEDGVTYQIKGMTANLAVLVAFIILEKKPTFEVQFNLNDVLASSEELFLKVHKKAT

OTUB2 (OTUB2A) = target: T4, OTUB2 (OTUB2A) (Homo sapiens, UniProt Q96DC9); parameters: Intact protein LC/MS covalent labelling, fragments in pools of five, 200 uM each, 4 °C; details: 24 h, 4 °C, pool of five; 200 µM; covalent
T4 construct: full length residues 1-234, E. coli BL21(DE3)-R3, His tag removed by TEV, construct 27312 Da
T4 sequence (Q96DC9 1-234): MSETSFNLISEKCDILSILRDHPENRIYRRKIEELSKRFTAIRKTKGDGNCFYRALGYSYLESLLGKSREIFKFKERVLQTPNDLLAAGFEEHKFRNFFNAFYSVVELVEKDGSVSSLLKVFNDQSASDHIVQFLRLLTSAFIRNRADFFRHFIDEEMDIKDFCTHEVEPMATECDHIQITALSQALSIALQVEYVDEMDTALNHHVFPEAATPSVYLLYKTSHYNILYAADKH

PCAF = target: T5, PCAF (Homo sapiens, UniProt Q92831); parameters: Intact protein LC/MS covalent labelling, fragments in pools of five, 200 uM each, 4 °C; details: 24 h, 4 °C, pool of five; 200 µM; covalent
T5 construct: gene KAT2B
T5 sequence (Q92831 whole entry, the tested form may be a part): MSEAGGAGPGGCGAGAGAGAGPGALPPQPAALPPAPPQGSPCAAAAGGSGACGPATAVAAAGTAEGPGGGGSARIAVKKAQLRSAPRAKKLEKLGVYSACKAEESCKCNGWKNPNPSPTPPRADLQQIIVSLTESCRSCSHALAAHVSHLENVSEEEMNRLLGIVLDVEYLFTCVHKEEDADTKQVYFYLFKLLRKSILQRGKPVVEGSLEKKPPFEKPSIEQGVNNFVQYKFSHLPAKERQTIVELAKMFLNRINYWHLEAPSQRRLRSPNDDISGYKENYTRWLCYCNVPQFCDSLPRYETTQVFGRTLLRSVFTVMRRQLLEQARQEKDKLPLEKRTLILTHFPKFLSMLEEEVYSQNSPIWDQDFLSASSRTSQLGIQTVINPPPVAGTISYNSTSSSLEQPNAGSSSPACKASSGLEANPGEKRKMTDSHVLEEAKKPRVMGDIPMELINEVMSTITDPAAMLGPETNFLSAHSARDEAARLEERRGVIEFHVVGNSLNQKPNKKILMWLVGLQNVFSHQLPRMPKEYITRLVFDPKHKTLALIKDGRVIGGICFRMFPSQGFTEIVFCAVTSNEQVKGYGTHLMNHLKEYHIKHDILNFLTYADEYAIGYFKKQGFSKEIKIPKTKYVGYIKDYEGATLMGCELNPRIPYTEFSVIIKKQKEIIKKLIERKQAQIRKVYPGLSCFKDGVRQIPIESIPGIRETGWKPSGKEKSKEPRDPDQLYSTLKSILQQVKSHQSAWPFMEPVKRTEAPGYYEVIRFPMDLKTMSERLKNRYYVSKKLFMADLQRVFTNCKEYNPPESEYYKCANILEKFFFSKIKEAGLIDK

in vitro [1] = assay: in vitro; parameters: species or system CCD841, HEK293; details: human, hb2 cells, read-out: HB-2 Cells Viability (%)
in vitro [2] = assay: in vitro; parameters: species or system HB2, HEK293; details: human, ccd841 cells
in vitro [3] = assay: in vitro; parameters: species or system HB2, CCD841; details: human, hek293 cells

T1 sequence (P02769 whole entry, the tested form may be a part): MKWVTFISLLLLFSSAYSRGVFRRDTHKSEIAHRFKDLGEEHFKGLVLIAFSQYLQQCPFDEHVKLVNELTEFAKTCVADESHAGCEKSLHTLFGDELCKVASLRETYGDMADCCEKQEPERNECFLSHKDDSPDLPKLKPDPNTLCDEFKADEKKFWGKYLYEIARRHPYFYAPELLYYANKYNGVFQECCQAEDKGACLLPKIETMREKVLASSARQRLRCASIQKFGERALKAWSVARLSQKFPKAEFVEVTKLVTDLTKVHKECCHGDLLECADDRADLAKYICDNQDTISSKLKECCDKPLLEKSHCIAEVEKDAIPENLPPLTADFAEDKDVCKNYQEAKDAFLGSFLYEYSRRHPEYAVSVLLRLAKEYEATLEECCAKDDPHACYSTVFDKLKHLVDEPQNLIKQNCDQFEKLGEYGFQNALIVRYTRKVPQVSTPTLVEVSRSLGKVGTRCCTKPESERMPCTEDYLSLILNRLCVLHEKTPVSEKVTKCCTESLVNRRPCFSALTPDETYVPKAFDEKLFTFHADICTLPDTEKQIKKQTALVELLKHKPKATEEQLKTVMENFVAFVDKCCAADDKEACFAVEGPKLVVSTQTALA

Structure (SMILES): O=C(CCl)NCc1cccc(F)c1 [PCM-0103047]
- BSA (BSA): 0
- NNMT (NNMT (hNNMT)): 0
- NUDT7 (NUDT7): 0
- OTUB2 (OTUB2 (OTUB2A)): 0.43
- PCAF (PCAF): 0
- viability at 48 h, 10 µM (in vitro [1]): 83.7%
- viability at 48 h, 10 µM (in vitro [2]): 69.7%
- viability at 48 h, 10 µM (in vitro [3]): 88.1%

Structure (SMILES): COC(=O)c1cccc(NC(=O)CCl)c1 [PCM-0103048]
- BSA (BSA): 0
- NNMT (NNMT (hNNMT)): 0.2
- NUDT7 (NUDT7): 0
- OTUB2 (OTUB2 (OTUB2A)): 0.87
- PCAF (PCAF): 0
- viability at 48 h, 10 µM (in vitro [1]): 17.7%
- viability at 48 h, 10 µM (in vitro [2]): 34.7%
- viability at 48 h, 10 µM (in vitro [3]): 5.1%

Structure (SMILES): O=C(CCl)NCc1cc(Br)cs1 [PCM-0103050]
- BSA (BSA): 0
- NNMT (NNMT (hNNMT)): 0
- NUDT7 (NUDT7): 0.13
- OTUB2 (OTUB2 (OTUB2A)): 0.84
- PCAF (PCAF): 0
- viability at 48 h, 10 µM (in vitro [1]): 87%
- viability at 48 h, 10 µM (in vitro [2]): 75.7%
- viability at 48 h, 10 µM (in vitro [3]): 53.1%

Structure (SMILES): Cl.O=C(CCl)NC1CCN(C2CC2)CC1 [PCM-0103055]
- BSA (BSA): 0
- NNMT (NNMT (hNNMT)): 0.23
- NUDT7 (NUDT7): 0
- OTUB2 (OTUB2 (OTUB2A)): 0
- PCAF (PCAF): 0
- viability at 48 h, 10 µM (in vitro [1]): 98.2%
- viability at 48 h, 10 µM (in vitro [2]): 83%
- viability at 48 h, 10 µM (in vitro [3]): 92.7%

Structure (SMILES): CC1(C)CCCN1C(=O)CCl [PCM-0103060]
- BSA (BSA): 0
- NNMT (NNMT (hNNMT)): 0
- NUDT7 (NUDT7): 0
- OTUB2 (OTUB2 (OTUB2A)): 0
- PCAF (PCAF): 0
- viability at 48 h, 10 µM (in vitro [1]): 104%
- viability at 48 h, 10 µM (in vitro [2]): 92.4%
- viability at 48 h, 10 µM (in vitro [3]): 74.5%

Structure (SMILES): O=C(CCl)N(C1CCCC1)C1CC1 [PCM-0103064]
- BSA (BSA): 0
- NNMT (NNMT (hNNMT)): 0
- NUDT7 (NUDT7): 0
- OTUB2 (OTUB2 (OTUB2A)): 0
- PCAF (PCAF): 0
- viability at 48 h, 10 µM (in vitro [1]): 102%
- viability at 48 h, 10 µM (in vitro [2]): 87.8%
- viability at 48 h, 10 µM (in vitro [3]): 74%

Structure (SMILES): O=C(CCl)NCC1CCC1 [PCM-0103065]
- BSA (BSA): 0
- NNMT (NNMT (hNNMT)): 0
- NUDT7 (NUDT7): 0
- OTUB2 (OTUB2 (OTUB2A)): 0
- PCAF (PCAF): 0
- viability at 48 h, 10 µM (in vitro [1]): 104%
- viability at 48 h, 10 µM (in vitro [2]): 108%
- viability at 48 h, 10 µM (in vitro [3]): 104%

Structure (SMILES): Cc1cc(NC(=O)CCl)n(-c2ccccc2F)n1 [PCM-0103066]
- BSA (BSA): 0
- NNMT (NNMT (hNNMT)): 0
- NUDT7 (NUDT7): 0
- OTUB2 (OTUB2 (OTUB2A)): 0.44
- PCAF (PCAF): 0
- viability at 48 h, 10 µM (in vitro [1]): 64%
- viability at 48 h, 10 µM (in vitro [2]): 65.3%
- viability at 48 h, 10 µM (in vitro [3]): 36%

Structure (SMILES): COc1cccc2sc(NC(=O)CCl)nc12.Cl [PCM-0103067]
- BSA (BSA): 0
- NNMT (NNMT (hNNMT)): 1
- NUDT7 (NUDT7): 1
- OTUB2 (OTUB2 (OTUB2A)): 0.16
- PCAF (PCAF): 0
- viability at 48 h, 10 µM (in vitro [1]): 32.2%
- viability at 48 h, 10 µM (in vitro [2]): 48.9%
- viability at 48 h, 10 µM (in vitro [3]): 47.6%

Structure (SMILES): O=C(CCl)Nc1cccc(C(=O)N2CCSCC2)c1 [PCM-0103072]
- BSA (BSA): 0
- NNMT (NNMT (hNNMT)): 0
- NUDT7 (NUDT7): 0
- OTUB2 (OTUB2 (OTUB2A)): 0
- PCAF (PCAF): 0
- viability at 48 h, 10 µM (in vitro [1]): 34.5%
- viability at 48 h, 10 µM (in vitro [2]): 55.2%
- viability at 48 h, 10 µM (in vitro [3]): 7.8%

Structure (SMILES): Cc1ccsc1CNC(=O)CCl [PCM-0103075]
- BSA (BSA): 0.21
- NNMT (NNMT (hNNMT)): 0
- NUDT7 (NUDT7): 0
- OTUB2 (OTUB2 (OTUB2A)): 0.55
- PCAF (PCAF): 0
- viability at 48 h, 10 µM (in vitro [1]): 96.1%
- viability at 48 h, 10 µM (in vitro [2]): 76.7%
- viability at 48 h, 10 µM (in vitro [3]): 83.8%

Structure (SMILES): O=C(CCl)Nc1nc(C2CC2)no1 [PCM-0103076]
- BSA (BSA): 0
- NNMT (NNMT (hNNMT)): 0.16
- NUDT7 (NUDT7): 0
- OTUB2 (OTUB2 (OTUB2A)): 0.11
- PCAF (PCAF): 0
- viability at 48 h, 10 µM (in vitro [1]): 104%
- viability at 48 h, 10 µM (in vitro [2]): 102%
- viability at 48 h, 10 µM (in vitro [3]): 97.9%

Structure (SMILES): O=C(CCl)Nc1ccon1 [PCM-0103077]
- BSA (BSA): 0
- NNMT (NNMT (hNNMT)): 0
- NUDT7 (NUDT7): 0
- OTUB2 (OTUB2 (OTUB2A)): 0.3
- PCAF (PCAF): 0
- viability at 48 h, 10 µM (in vitro [1]): 77.3%
- viability at 48 h, 10 µM (in vitro [2]): 61.1%
- viability at 48 h, 10 µM (in vitro [3]): 64.8%

Structure (SMILES): C=CC(=O)NCc1cc(F)c(C(F)(F)F)cc1F [PCM-0103078]
- BSA (BSA): 0
- NNMT (NNMT (hNNMT)): 0.2
- NUDT7 (NUDT7): 0
- OTUB2 (OTUB2 (OTUB2A)): 0
- PCAF (PCAF): 0
- viability at 48 h, 10 µM (in vitro [1]): 101%
- viability at 48 h, 10 µM (in vitro [2]): 96.9%
- viability at 48 h, 10 µM (in vitro [3]): 88.4%
